Test [1] addresses T1, hFASN enzyme (full length) (Homo sapiens, UniProt P49327).
T1 construct: 10 μL hFASN enzyme (full length, 300 ng, purified in house); made in house
As to the kind of experiment: Fatty Acid Synthase (FASN) Inhibition Scintillation Proximity Assay. The conditions noted are these: for IC50: mean where tested more than once, ~ = standard error of pIC50 larger than 0.5; for inhibition at 10 µM: read-out: FASN % Effect @1E−05M. Type of test: biochemical. In outline: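 Purified full-length human FASN (300 ng) incubated 60 min at room temperature with NADPH, [3H]-acetyl-CoA and malonyl-CoA in 100 mM KH2PO4 pH 7.5, 1 mM DTT; compound at 30 μM to 0.01 μM. [3H]-palmitate captured by SPA imaging beads; IC50 from 4-parameter fit, reported as pIC50.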
(In a scintillation proximity assay essentially only radioactivity close to the scintillant gives light.)

Test [2] concerns the target T2, FASN Keto-reductase Domain (Homo sapiens, UniProt P49327).
T2 construct: 10 μL hFASN enzyme (full length, 300 ng, purified in house) and 360 μM NADPH; made in house
The test can be described thus: Fatty Acid Synthase Keto-Reductase Domain (FASN KR) Inhibition. Type of test: biochemical. The conditions noted are these: mean where tested more than once; read-out: FASN K-R Domain pIC50 (converted). In outline:
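Full-length human FASN (300 ng) in 100 mM KH2PO4 pH 7.5 with 360 μM NADPH and 180 mM ethyl acetoacetate (stock); A340 decrease read over 20 min at room temperature.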

Test [3] concerns A2780 ovarian cells. As to the kind of experiment: A2780 Ovarian Cell Proliferation Assay in Lipid Reduced Medium, without Palmitate. Type of test: cell-based. As to conditions: Homo sapiens, A2780; lipid reduced medium, without palmitate, 96 h, MTT; read-out: Proliferation A2780 w/o Palmitate pIC50 (converted). In outline: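 A2780 cells were seeded in 10% FCS medium and switched next day to 10% lipid-reduced serum without palmitate. Compounds at 0.01–30 μM were added with 0.2% DMSO, 0.2% fatty-acid-free BSA and 0.25% ethanol final. After 96 h, MTT absorbance at 544 nm was normalized to plate controls, and IC50/pIC50 came from a 4-parameter logistic fit.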

Test [4] deals with A2780 ovarian cells. The test can be described thus: A2780 Ovarian Cell Proliferation Assay in Lipid Reduced Medium, with Palmitate (control). The format is cell-based. The conditions noted are these: Homo sapiens, A2780; lipid reduced medium, 25 μM palmitate, 96 h, MTT; read-out: Proliferation A2780 with Palmitate pIC50 (converted). The procedure, abridged: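 A2780 cells were seeded in RPMI1640 with 10% FCS, then switched next day to medium with 10% lipid-reduced serum. Compound was added with final 25 μM palmitate, 0.2% fatty-acid-free BSA and 0.2% DMSO, and incubated 96 h at 37 °C. Read-out was MTT absorbance at 544 nm; pIC50 = −log(IC50) from curve fit.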

17 compounds from US9562035B2, “Benzamide derivative useful as FASN inhibitors for the treatment of cancer” (Janssen Pharmaceutica NV, priority 2013, dated 2017) can be followed below.

SMILES strings stand for the structures.

T1 sequence (P49327 whole entry): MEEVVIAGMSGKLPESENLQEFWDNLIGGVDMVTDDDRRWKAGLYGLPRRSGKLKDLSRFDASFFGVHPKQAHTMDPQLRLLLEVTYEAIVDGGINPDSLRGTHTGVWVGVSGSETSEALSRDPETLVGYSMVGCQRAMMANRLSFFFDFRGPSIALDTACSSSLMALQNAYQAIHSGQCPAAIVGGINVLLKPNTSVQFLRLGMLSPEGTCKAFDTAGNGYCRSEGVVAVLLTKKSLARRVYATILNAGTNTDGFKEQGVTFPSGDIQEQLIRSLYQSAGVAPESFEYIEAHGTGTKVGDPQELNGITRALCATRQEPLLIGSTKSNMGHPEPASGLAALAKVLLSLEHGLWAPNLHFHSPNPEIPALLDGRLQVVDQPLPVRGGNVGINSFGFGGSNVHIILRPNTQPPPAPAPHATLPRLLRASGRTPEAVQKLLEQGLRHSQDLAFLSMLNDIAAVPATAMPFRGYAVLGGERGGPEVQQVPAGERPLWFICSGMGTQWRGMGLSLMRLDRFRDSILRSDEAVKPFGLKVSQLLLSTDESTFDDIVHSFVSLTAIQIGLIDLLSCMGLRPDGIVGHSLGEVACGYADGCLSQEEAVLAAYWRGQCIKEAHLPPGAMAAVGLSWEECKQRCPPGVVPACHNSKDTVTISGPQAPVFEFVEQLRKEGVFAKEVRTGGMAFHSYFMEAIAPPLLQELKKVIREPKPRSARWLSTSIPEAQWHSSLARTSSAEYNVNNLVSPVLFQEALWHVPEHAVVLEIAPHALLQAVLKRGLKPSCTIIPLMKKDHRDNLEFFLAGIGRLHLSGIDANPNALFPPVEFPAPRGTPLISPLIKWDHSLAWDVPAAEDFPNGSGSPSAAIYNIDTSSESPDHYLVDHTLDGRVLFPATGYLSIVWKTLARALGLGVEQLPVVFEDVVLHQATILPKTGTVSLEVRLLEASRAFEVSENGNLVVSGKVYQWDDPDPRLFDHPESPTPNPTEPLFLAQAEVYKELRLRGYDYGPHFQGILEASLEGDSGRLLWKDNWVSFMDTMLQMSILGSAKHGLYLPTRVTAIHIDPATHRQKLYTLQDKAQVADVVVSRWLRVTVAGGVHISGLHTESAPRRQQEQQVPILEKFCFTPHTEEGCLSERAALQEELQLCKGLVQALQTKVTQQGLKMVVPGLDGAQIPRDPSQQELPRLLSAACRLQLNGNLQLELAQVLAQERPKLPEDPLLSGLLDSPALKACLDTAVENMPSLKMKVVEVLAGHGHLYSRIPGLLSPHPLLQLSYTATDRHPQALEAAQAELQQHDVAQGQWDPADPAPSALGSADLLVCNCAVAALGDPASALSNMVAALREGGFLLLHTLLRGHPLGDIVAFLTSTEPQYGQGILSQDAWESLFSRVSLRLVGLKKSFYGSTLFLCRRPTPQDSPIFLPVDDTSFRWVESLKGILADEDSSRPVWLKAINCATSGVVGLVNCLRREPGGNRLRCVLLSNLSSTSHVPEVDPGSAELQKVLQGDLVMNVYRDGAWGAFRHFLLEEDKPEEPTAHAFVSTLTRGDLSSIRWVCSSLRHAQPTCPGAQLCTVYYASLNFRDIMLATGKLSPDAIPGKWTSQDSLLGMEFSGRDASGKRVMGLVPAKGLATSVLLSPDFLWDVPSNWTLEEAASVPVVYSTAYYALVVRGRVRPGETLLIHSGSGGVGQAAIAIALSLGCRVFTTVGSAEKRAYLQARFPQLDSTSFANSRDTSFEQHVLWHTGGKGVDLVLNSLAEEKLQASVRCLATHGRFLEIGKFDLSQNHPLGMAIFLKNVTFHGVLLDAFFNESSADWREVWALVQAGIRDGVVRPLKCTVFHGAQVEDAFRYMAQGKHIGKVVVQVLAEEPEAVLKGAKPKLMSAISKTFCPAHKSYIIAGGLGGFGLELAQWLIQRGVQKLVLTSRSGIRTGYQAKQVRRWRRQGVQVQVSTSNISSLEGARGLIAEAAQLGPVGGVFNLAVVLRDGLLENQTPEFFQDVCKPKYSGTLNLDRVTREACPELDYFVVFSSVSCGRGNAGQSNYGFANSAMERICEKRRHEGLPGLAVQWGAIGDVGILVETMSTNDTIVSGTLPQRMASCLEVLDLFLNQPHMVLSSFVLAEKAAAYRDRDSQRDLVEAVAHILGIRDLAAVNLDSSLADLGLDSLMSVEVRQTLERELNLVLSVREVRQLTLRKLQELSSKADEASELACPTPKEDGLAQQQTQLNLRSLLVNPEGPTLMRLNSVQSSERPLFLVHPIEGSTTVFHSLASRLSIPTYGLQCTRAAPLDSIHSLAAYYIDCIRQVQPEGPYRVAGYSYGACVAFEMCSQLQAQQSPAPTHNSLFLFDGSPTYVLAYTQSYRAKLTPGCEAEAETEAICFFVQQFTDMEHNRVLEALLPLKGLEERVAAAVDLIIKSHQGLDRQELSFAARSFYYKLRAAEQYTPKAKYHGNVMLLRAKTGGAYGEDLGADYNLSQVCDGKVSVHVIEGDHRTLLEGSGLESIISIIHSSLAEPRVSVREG
T2 sequence (P49327 whole entry, the tested form may be a part): as the sequence (P49327 whole entry) above

Take `Cc1ccc(C(=O)N2CC(c3ccc(-c4ccncc4N)cc3)C2)cc1NC(=O)c1ccc(N2CCOCC2)nc1` [Compound 265, N-(5-(3-(4-(3-aminopyridin-4-yl)phenyl)azetidine-1-carbonyl)-2-methylphenyl)-6-morpholinonicotinamide]: the IC50 was 21.9 nM in test [1], 60.3 nM in test [2], 20.9 nM with A2780 ovarian cells [3] and > 10 µM with A2780 ovarian cells [4]. Moreover, in test [1], the inhibition at 10 µM was determined as 110%.

On to `Cc1ccc(C(=O)N2CCC(c3ccc(-c4cnn(C)c4)cc3)C2)cc1NC(=O)c1ccc(N2CCOCC2)nc1` (stereo not shown) [Compound 204, N-(2-methyl-5-(3-(4-(1-methyl-1H-pyrazol-4-yl)phenyl)pyrrolidine-1-carbonyl)phenyl)-6-morpholinonicotinamide], for which the IC50 was 129 nM in test [1], 398 nM in test [2], 107 nM in the test with A2780 ovarian cells [3] and > 10 µM in the test on A2780 ovarian cells [4]. Besides, in test [1], the inhibition at 10 µM amounted to 107%.

With `Cc1ccc(C(=O)N2CCC(c3ccc(-c4cnn(C)c4)cc3)CC2)cc1NC(=O)C1CCCO1` (stereo not shown) [Compound 151, N-(2-methyl-5-(4-(4-(1-methyl-1H-pyrazol-4-yl)phenyl)piperidine-1-carbonyl)phenyl)tetrahydrofuran-2-carboxamide], the IC50 in test [1] is 148 nM; in test [2] it was 708 nM; in the test with A2780 ovarian cells [3] it was 1170 nM; in the test with A2780 ovarian cells [4], > 10 µM. The inhibition at 10 µM in test [1] came out at 101%.

With `Cc1ccc(C(=O)N2CCC(c3ccc(-c4cnn(C)c4)cc3)CC2)cc1NC(=O)c1cnc(N(C)C(C)C)nc1` [Compound 144, 2-(isopropyl(methyl)amino)-N-(2-methyl-5-(4-(4-(1-methyl-1H-pyrazol-4-yl)phenyl)piperidine-1-carbonyl)phenyl)pyrimidine-5-carboxamide], the IC50 in test [1] was 24 nM; in test [2], 35.5 nM; with A2780 ovarian cells [3] it was ~12.3 nM; with A2780 ovarian cells [4], 7.76 µM. Further, the inhibition at 10 µM in test [1] was 106%.

In the case of `Cc1ccc(C(=O)N2CCC(c3ccc(-c4cnn(-c5ccncc5)c4)cc3)CC2)cc1NC(=O)c1ccc(NC(C)C)nc1` [Compound 272, 6-(isopropylamino)-N-(2-methyl-5-(4-(4-(1-(pyridin-4-yl)-1H-pyrazol-4-yl)phenyl)piperidine-1-carbonyl)phenyl)nicotinamide], the IC50 was 29.5 nM in test [1], 105 nM in test [2], 43.7 nM in the test with A2780 ovarian cells [3] and 1.38 µM in the test with A2780 ovarian cells [4]. Further, the inhibition at 10 µM in test [1] worked out at 112%.

Take `Cc1ccc(C(=O)N2CCC(c3ccc(-c4cnn(C)c4)cc3)C2)cc1NC(=O)c1ccc(Cl)nc1` (stereo not shown) [Compound 203, 6-chloro-N-(2-methyl-5-(3-(4-(1-methyl-1H-pyrazol-4-yl)phenyl)pyrrolidine-1-carbonyl)phenyl)nicotinamide]: the IC50 was 282 nM in test [1], 977 nM in test [2], 372 nM in the test with A2780 ovarian cells [3] and > 10 µM with A2780 ovarian cells [4]. Also, the inhibition at 10 µM in test [1] came to 97%.

Take `Cc1ccc(C(=O)N2CC(c3ccc(-c4ccnc5ccccc45)cc3)C2)cc1NC(=O)c1ccc(NC(C)C)nc1` [Compound 39, 6-(isopropylamino)-N-(2-methyl-5-(3-(4-(Quinolin-4-yl)phenyl)azetidine-1-carbonyl)phenyl)nicotinamide]: the IC50 in test [1] is 30.2 nM; in test [2], 16.6 nM; in the test on A2780 ovarian cells [3], 33.9 nM; in the test with A2780 ovarian cells [4], 5.5 µM. Besides, the inhibition at 10 µM in test [1] turned out to be 111%.

`Cc1ccc(C(=O)N2CC(c3ccc(-c4cnn(C)c4)cc3)C2)cc1NC(=O)c1cnc(Cl)nc1` [Compound 154, 2-chloro-N-(2-methyl-5-(3-(4-(1-methyl-1H-pyrazol-4-yl)phenyl)azetidine-1-carbonyl)phenyl)pyrimidine-5-carboxamide]: the IC50 in test [1] was 26.9 nM; in test [2], 105 nM; in the test on A2780 ovarian cells [3] it was 1350 nM; in the test with A2780 ovarian cells [4] it was 4.07 µM. Also, the inhibition at 10 µM in test [1] was determined as 108%.

On to `Cc1ccc(C(=O)N2CC[C@H](c3ccc(-n4ccnc4)cc3)[C@@H](C)C2)cc1NC(=O)c1ccc(Cl)nc1` (racemic) [Compound 54, (±)-N-(5-(4-((3R,4S)-4-(1H-imidazol-1-yl)phenyl)-3-methylpiperidine-1-carbonyl)-2-methylphenyl)-6-chloronicotinamide], for which the IC50 in test [1] was 234 nM; in test [2], 288 nM; with A2780 ovarian cells [3], 204 nM; in the test with A2780 ovarian cells [4], > 10 µM. Moreover, in test [1], the inhibition at 10 µM was 104%.

As to `Cc1ccc(C(=O)N2CCC(c3ccc(-c4cnn(C)c4)cc3)CC2)cc1NC(=O)C1CN(CC(C)(C)C)C1` [Compound 190, N-(2-methyl-5-(4-(4-(1-methyl-1H-pyrazol-4-yl)phenyl)piperidine-1-carbonyl)phenyl)-1-neopentylazetidine-3-carboxamide], the IC50 in test [1] is 74.1 nM; in test [2], 251 nM; in the test on A2780 ovarian cells [3], 257 nM; in the test on A2780 ovarian cells [4], > 10 µM. For the same compound, in test [1], the inhibition at 10 µM amounted to 102%.

Take `COc1cccc(-c2ccc(C3CCN(C(=O)c4ccc(C)c(NC(=O)c5ccc(NC(C)C)nc5)c4)CC3)cc2)c1` [Compound 201, 6-(isopropylamino)-N-(5-(4-(3′-methoxy-[1,1′-biphenyl]-4-yl)piperidine-1-carbonyl)-2-methylphenyl)nicotinamide]: the IC50 in test [1] was 214 nM; in test [2], 380 nM; with A2780 ovarian cells [3] it was 513 nM; with A2780 ovarian cells [4] it was 0.933 µM. Further, the inhibition at 10 µM in test [1] amounted to 86%.

On to `CCCCCN1CCC(C(=O)Nc2cc(C(=O)N3CCC(c4ccc(-c5cnn(C)c5)cc4)CC3)ccc2C)C1` (stereo not shown) [Compound 215, N-(2-methyl-5-(4-(4-(1-methyl-1H-pyrazol-4-yl)phenyl)piperidine-1-carbonyl)phenyl)-1-pentylpyrrolidine-3-carboxamide], for which the IC50 in test [1] was 105 nM; in test [2], 309 nM; with A2780 ovarian cells [3] it was 191 nM; in the test on A2780 ovarian cells [4], 9.33 µM. The inhibition at 10 µM in test [1] amounted to 107%.

Turning to `Cc1ccc(C(=O)N2CC[C@H](c3ccc(-c4ccnn4C)cc3)[C@H](C)C2)cc1NC(=O)c1ccc(NC(C)C)nc1` (racemic) [Compound #76, (±)-6-(Isopropylamino)-N-(2-methyl-5-((3S,4S)-3-methyl-4-(4-(1-methyl-1H-pyrazol-5-yl)phenyl)piperidine-1-carbonyl)phenyl)nicotinamide], the IC50 in test [1] was 631 nM; in test [2] it was 1380 nM; with A2780 ovarian cells [3] it was 1050 nM; in the test on A2780 ovarian cells [4], 2 µM. Moreover, the inhibition at 10 µM in test [1] turned out to be 91%.

In the case of `Cc1ccc(C(=O)N2CC(c3ccc(-c4cnn(C)c4)cc3)C2)cc1NC(=O)c1ccc(NC2CCC2)nc1` [Compound 109, 6-(cyclobutylamino)-N-(2-methyl-5-(3-(4-(1-methyl-1H-pyrazol-4-yl)phenyl)azetidine-1-carbonyl)phenyl)nicotinamide], the IC50 in test [1] is 14.5 nM; in test [2], 31.6 nM; in the test with A2780 ovarian cells [3], ~23.4 nM; in the test with A2780 ovarian cells [4] it was > 15.1 µM. Also, the inhibition at 10 µM in test [1] is 119%.

Turning to `Cc1ccc(C(=O)N2CC(c3ccc(-c4ccncc4)cc3)C2)cc1NC(=O)c1ccc(Cl)nc1` [Compound 3, 6-chloro-N-(2-methyl-5-(3-(4-(pyridin-4-yl)phenyl)azetidine-1-carbonyl)phenyl)nicotinamide], the IC50 in test [1] is 25.7 nM; in test [2], 64.6 nM; in the test on A2780 ovarian cells [3], 138 nM; in the test with A2780 ovarian cells [4], 5.25 µM. Moreover, the inhibition at 10 µM in test [1] came out at 106%.

For the compound `Cc1ccc(C(=O)N2CCC(c3ccc(-c4cnn(C)c4)cc3)CC2)cc1NC(=O)C1CCN(C2CCCC2)C1` (stereo not shown) [Compound 189, 1-cyclopentyl-N-(2-methyl-5-(4-(4-(1-methyl-1H-pyrazol-4-yl)phenyl)piperidine-1-carbonyl)phenyl)pyrrolidine-3-carboxamide], the IC50 was 126 nM in test [1], 309 nM in test [2], 263 nM with A2780 ovarian cells [3] and > 10 µM with A2780 ovarian cells [4]. Moreover, the inhibition at 10 µM in test [1] is 102%.

Regarding `Cc1ccc(C(=O)Nc2cc(C(=O)N3CCC(c4ccc(-c5cnn(C)c5)cc4)CC3)ccc2C)s1` [Compound 157, 5-methyl-N-(2-methyl-5-(4-(4-(1-methyl-1H-pyrazol-4-yl)phenyl)piperidine-1-carbonyl)phenyl)thiophene-2-carboxamide], the IC50 is 42.7 nM in test [1], 120 nM in test [2], 115 nM in the test on A2780 ovarian cells [3] and > 10 µM in the test with A2780 ovarian cells [4]. Also, the inhibition at 10 µM in test [1] is 104%.
